#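 Method: 48-hour compound exposure of cells in 96-well plates, five concentrations, linear interpolation of endpoints. TGI denotes the concentration required for complete inhibition of growth.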
# Experiments:
# Experiment in all cases: growth of human tumour cells (NCI), 48 h
# A549 NSCLC = system: A549 NSCLC
# BT-549 breast = system: BT-549 breast
# DU-145 prostate = system: DU-145 prostate
# HCC-2998 colon = system: HCC-2998 colon
# MDA-N = system: MDA-N
# NCI-H460 lung = system: NCI-H460 lung
# PC-3 prostate = system: PC-3 prostate
# RXF 393 renal = system: RXF 393 renal
# SK-MEL-5 melanoma = system: SK-MEL-5 melanoma
# T-47D breast = system: T-47D breast
# UACC-257 melanoma = system: UACC-257 melanoma
SMILES,TGI (A549 NSCLC) [µM],TGI (BT-549 breast) [µM],TGI (DU-145 prostate) [µM],TGI (HCC-2998 colon) [µM],TGI (MDA-N) [µM],TGI (NCI-H460 lung) [µM],TGI (PC-3 prostate) [µM],TGI (RXF 393 renal) [µM],TGI (SK-MEL-5 melanoma) [µM],TGI (T-47D breast) [µM],TGI (UACC-257 melanoma) [µM]
CCOC(=O)c1nc2cc(C(F)(F)F)ccc2nc1Oc1ccc(F)cc1,> 100,> 100,> 100,> 100,> 100,> 100,> 100,> 100,> 100,> 100,> 100
Nc1c2cc3ccc2nc2ccc(cc12)OCCOCCOCCOCCOCCOCCO3,> 10,> 10,> 10,> 10,> 10,> 10,> 10,> 10,> 10,> 10,> 10
Cc1cn(C2OC(CO)C(O)C2F)c(=O)[nH]c1=O (configuration not stated),> 100,> 100,> 100,> 100,> 100,> 100,> 100,> 100,> 100,> 100,> 100
C#C[C@]1(O)CC[C@H]2[C@@H]3CCC4=C/C(=N/OC(=O)c5cccc6c(=O)c7ccccc7[nH]c56)CCC4[C@H]3CC[C@@]21CC (some centres not stated),> 100,87.8,> 100,> 90.9,> 100,> 100,> 96,12.6,> 53.1,> 75.9,> 88.1
COc1cc(S(=O)(=O)Nc2ccc(-c3csc(N4C(=O)C(Cl)C4c4cccs4)n3)cc2)ccc1Cl (configuration not stated),> 100,> 100,> 100,> 100,> 100,> 100,> 100,86.4,> 100,> 100,> 100
COc1ccc(/C=C/C(=O)Oc2ccccc2OC)cc1,> 100,> 100,> 100,43.3,> 100,> 100,> 100,99.8,> 100,> 92.2,> 100
O=C(Nc1ccc2cc3ccccc3cc2c1)c1cc2c(cc1Cl)Sc1nccn1S2(=O)=O,> 100,> 100,> 100,95.8,> 100,> 100,52.6,> 100,> 100,> 100,> 100
O=c1c2c3c(sc2nc2n1N=CN(c1ccc(F)cc1)C2)CCCC3,> 100,> 100,> 100,> 100,> 100,> 100,> 100,> 100,> 100,> 100,> 100
C=CC[C@]1(C2=NC(C)(C)CO2)c2ccccc2-c2ccccc2[C@H]1C(C)=O,36.8,37.1,29.6,20.7,8.45,19.3,27.7,15.8,12.7,> 69.5,24
C=CCn1c(-c2ccc(Cl)cc2)csc1=Nc1ccccc1OC,> 100,> 100,> 100,> 100,> 59.6,> 100,> 100,> 100,8.11,8.5,29.7
COC(=O)[C@H](Cc1c[nH]c2ccccc12)NC(=O)c1ccccc1I,> 100,> 100,53.9,82.6,42.6,> 100,59.3,39.8,29.6,76.2,35.1
COCOc1cc(OC)ccc1C/C(=N/O)C(=O)OC,> 100,> 100,> 100,> 100,> 100,> 100,> 100,> 100,> 100,> 100,> 100
CCOC(=O)/C=C(/C(=O)OCC)n1ccc(=O)n(Cc2cnnn2CCCCOC(C)=O)c1=O,> 100,> 100,> 100,> 100,> 100,> 100,> 100,> 100,> 100,> 100,> 100
COc1ccc2c(c1OC)C(=O)O[C@@H]2[C@H]1c2c(cc3c(c2OC)OCO3)CCN1C,> 100,> 100,> 100,> 100,> 100,> 100,> 100,> 100,> 100,> 100,> 100
O=C(NC1(C(=O)O)CCCC1)c1ccccc1,> 100,> 100,> 100,> 100,> 100,> 100,> 100,> 100,> 100,> 100,> 100
CC(=O)NC1(C)C(C)C2CC1C(C)C2(C)C (configuration not stated),> 100,> 100,> 100,> 100,> 100,> 100,> 100,> 100,> 100,> 100,> 100
CN(C)c1ccc(/C=C(\NC(=O)c2ccccc2)C(=O)NC(Cc2c[nH]c3ccccc23)C(=O)O)cc1 (configuration not stated),> 100,> 100,> 100,> 100,> 100,> 100,> 100,> 100,> 100,> 100,> 100

# Source: PubChem BioAssay (NCI)
